From patent publication US12568972B2, “Pyridazinol compounds and derivatives, preparation methods, herbicidal compositions and applications thereof” (Qingdao Kingagroot Chemical Compound Co., Ltd., priority 2018, dated 2026)

What was measured:
Assay in all cases: Post-emergence test, weed control effect
Format in all cases: in vivo
Settings in all cases: after 3 weeks
Veronica polita = test system: Veronica polita
From the text: (§1) The activity level standard of harmful plant destruction (i.e. growth inhibition rate) is as follows: • Level 10: completely dead; • Level 9: above 90% growth inhibition rate; • Level 8: above 80% growth inhibition rate; • Level 7: above 70% growth inhibition rate; • Level 6: above 60% growth inhibition rate; • Level 5: above 50% growth inhibition rate; • Level 4: above 40% growth inhibition rate; • Level 3: above 30% growth inhibition rate; • Level 2: above 20% growth inhibition rate; • Level 1: below 20% growth inhibition rate; • Level 0: no effect.
(§2) The above described growth inhibition rates are fresh weight inhibition rates.
(§3) Experiment of post-emergence test: monocotyledonous and dicotyledonous weed seeds as well as main crop seeds (i.e., wheat, corn, rice, soybean, cotton, oilseed rape, millet and sorghum) were put into a plastic pot loaded with soil, then covered with 0.5-2 cm of soil, and the seeds were allowed to grow in good greenhouse environment. The test plants were treated at 2-3 leaf stage 2-3 weeks after sowing. The test compounds of the invention were dissolved in acetone respectively, then added with Tween-80 and diluted by a certain amount of water to give solutions with certain concentrations, and added with 80% vegetable oil methyl ester synergist at 1500 g/ha. The solution was sprayed to the plants with a sprayer. The plants were cultured for 3 weeks in the greenhouse.

Chenopodiaceae = test system: Chenopodiaceae
From the text: as §1, §2, §3

Amaranthus retroflexus = test system: Amaranthus retroflexus
From the text: as §1, §2, §3

Rorippa indica = test system: Rorippa indica
From the text: as §1, §2, §3

CC(C)CC(=O)Oc1cc(C(F)(F)F)nnc1-c1cccc(C(F)(F)F)c1 [Compound 1-8]
10: weed control effect, Veronica polita (activity level) (Veronica polita; Dose 3000 g/ha) | weed control effect, Chenopodiaceae (activity level) (Chenopodiaceae; Dose 3000 g/ha) | weed control effect, Amaranthus retroflexus (activity level) (Amaranthus retroflexus; Dose 3000 g/ha) | weed control effect, Rorippa indica (activity level) (Rorippa indica; Dose 3000 g/ha)

CP(=O)(O)CCC(N)C(=O)Oc1cc(C(F)(F)F)nnc1-c1ccc(F)cc1 (stereo not shown) [Compound 1-78]
10: weed control effect, Veronica polita (activity level) (Veronica polita; Dose 3000 g/ha) | weed control effect, Chenopodiaceae (activity level) (Chenopodiaceae; Dose 3000 g/ha) | weed control effect, Amaranthus retroflexus (activity level) (Amaranthus retroflexus; Dose 3000 g/ha) | weed control effect, Rorippa indica (activity level) (Rorippa indica; Dose 3000 g/ha)

Oc1cc(C(F)(F)F)nnc1-c1cccc(Cl)c1Cl [Compound 42]
10: weed control effect (activity level), Veronica polita (Veronica polita; dose 1000 g/ha) | weed control effect (activity level), Chenopodiaceae (Chenopodiaceae; dose 1000 g/ha) | weed control effect (activity level), Amaranthus retroflexus (Amaranthus retroflexus; dose 1000 g/ha) | weed control effect (activity level), Rorippa indica (Rorippa indica; dose 1000 g/ha)

Oc1cc(C(F)(F)F)nnc1-c1cccc(F)c1F [Compound 766]
10: weed control effect (activity level), Veronica polita (Veronica polita; Dose 3000 g/ha) | weed control effect (activity level), Chenopodiaceae (Chenopodiaceae; Dose 3000 g/ha) | weed control effect (activity level), Amaranthus retroflexus (Amaranthus retroflexus; Dose 3000 g/ha) | weed control effect (activity level), Rorippa indica (Rorippa indica; Dose 3000 g/ha)

Oc1cc(C(F)(F)F)nnc1-c1ccc(C(F)(F)F)nc1 [Compound 762]
10: weed control effect (activity level), Veronica polita (Veronica polita; Dose 3000 g/ha) | weed control effect (activity level), Chenopodiaceae (Chenopodiaceae; Dose 3000 g/ha) | weed control effect (activity level), Amaranthus retroflexus (Amaranthus retroflexus; Dose 3000 g/ha) | weed control effect (activity level), Rorippa indica (Rorippa indica; Dose 3000 g/ha)

O=C(Oc1cc(C(F)(F)F)nnc1-c1ccc(F)c(F)c1)N1CCOCC1 [Compound 1-66]
10: weed control effect, Veronica polita (activity level) (Veronica polita; Dose 3000 g/ha) | weed control effect, Chenopodiaceae (activity level) (Chenopodiaceae; Dose 3000 g/ha) | weed control effect, Amaranthus retroflexus (activity level) (Amaranthus retroflexus; Dose 3000 g/ha) | weed control effect, Rorippa indica (activity level) (Rorippa indica; Dose 3000 g/ha)

Cn1ncc(C(F)(F)F)c1-c1nnc(C(F)(F)F)cc1O [Compound 823]
10: weed control effect (activity level), Veronica polita (Veronica polita; Dose 3000 g/ha) | weed control effect (activity level), Chenopodiaceae (Chenopodiaceae; Dose 3000 g/ha) | weed control effect (activity level), Amaranthus retroflexus (Amaranthus retroflexus; Dose 3000 g/ha) | weed control effect (activity level), Rorippa indica (Rorippa indica; Dose 3000 g/ha)

CC(C)OC(=O)Nc1ccc(-c2nnc(C(F)(F)F)cc2O)cn1 [Compound 323]
10: weed control effect (activity level), Veronica polita (Veronica polita; dose 2000 g/ha) | weed control effect (activity level), Chenopodiaceae (Chenopodiaceae; dose 2000 g/ha) | weed control effect (activity level), Amaranthus retroflexus (Amaranthus retroflexus; dose 2000 g/ha) | weed control effect (activity level), Rorippa indica (Rorippa indica; dose 2000 g/ha)

Cn1ncc(OCc2ccccc2)c1-c1nnc(C(F)(F)F)cc1O [Compound 813]
10: weed control effect (activity level), Veronica polita (Veronica polita; Dose 3000 g/ha) | weed control effect (activity level), Chenopodiaceae (Chenopodiaceae; Dose 3000 g/ha) | weed control effect (activity level), Amaranthus retroflexus (Amaranthus retroflexus; Dose 3000 g/ha) | weed control effect (activity level), Rorippa indica (Rorippa indica; Dose 3000 g/ha)

O=[N+]([O-])c1ccc(F)c(-c2nnc(C(F)(F)F)cc2O)c1 [Compound 61]
10: weed control effect (activity level), Veronica polita (Veronica polita; dose 1000 g/ha) | weed control effect (activity level), Chenopodiaceae (Chenopodiaceae; dose 1000 g/ha) | weed control effect (activity level), Amaranthus retroflexus (Amaranthus retroflexus; dose 1000 g/ha) | weed control effect (activity level), Rorippa indica (Rorippa indica; dose 1000 g/ha)

Cc1ccc(-c2nnc(C(F)(F)F)cc2O)c(F)c1 [Compound 59]
10: weed control effect (activity level), Veronica polita (Veronica polita; dose 1000 g/ha) | weed control effect (activity level), Chenopodiaceae (Chenopodiaceae; dose 1000 g/ha) | weed control effect (activity level), Amaranthus retroflexus (Amaranthus retroflexus; dose 1000 g/ha) | weed control effect (activity level), Rorippa indica (Rorippa indica; dose 1000 g/ha)

CCc1cccc(-c2nnc(C(F)(F)F)cc2OS(=O)(=O)c2cc3ccccc3s2)c1 [Compound 1-149]
10: weed control effect, Veronica polita (activity level) (Veronica polita; Dose 3000 g/ha) | weed control effect, Chenopodiaceae (activity level) (Chenopodiaceae; Dose 3000 g/ha) | weed control effect, Amaranthus retroflexus (activity level) (Amaranthus retroflexus; Dose 3000 g/ha) | weed control effect, Rorippa indica (activity level) (Rorippa indica; Dose 3000 g/ha)

Cn1cccc1C(=O)Oc1cc(C(F)(F)F)nnc1-c1ccccc1 [Compound 1-105]
10: weed control effect, Veronica polita (activity level) (Veronica polita; Dose 3000 g/ha) | weed control effect, Chenopodiaceae (activity level) (Chenopodiaceae; Dose 3000 g/ha) | weed control effect, Amaranthus retroflexus (activity level) (Amaranthus retroflexus; Dose 3000 g/ha) | weed control effect, Rorippa indica (activity level) (Rorippa indica; Dose 3000 g/ha)

O=Cc1ccc(F)cc1-c1nnc(C(F)(F)F)cc1O [Compound 67]
10: weed control effect (activity level), Veronica polita (Veronica polita; dose 1000 g/ha) | weed control effect (activity level), Chenopodiaceae (Chenopodiaceae; dose 1000 g/ha) | weed control effect (activity level), Amaranthus retroflexus (Amaranthus retroflexus; dose 1000 g/ha) | weed control effect (activity level), Rorippa indica (Rorippa indica; dose 1000 g/ha)

O=C1CCCCN1C(=O)Oc1cc(C(F)(F)F)nnc1-c1ccc(F)cc1 [Compound 1-69]
10: weed control effect, Veronica polita (activity level) (Veronica polita; Dose 3000 g/ha) | weed control effect, Chenopodiaceae (activity level) (Chenopodiaceae; Dose 3000 g/ha) | weed control effect, Amaranthus retroflexus (activity level) (Amaranthus retroflexus; Dose 3000 g/ha) | weed control effect, Rorippa indica (activity level) (Rorippa indica; Dose 3000 g/ha)

CCCCCCCSC(=O)Oc1cc(C(F)(F)F)nnc1-c1ccc(Cl)c(Cl)c1 [Compound 1-53]
10: weed control effect, Veronica polita (activity level) (Veronica polita; Dose 3000 g/ha) | weed control effect, Chenopodiaceae (activity level) (Chenopodiaceae; Dose 3000 g/ha) | weed control effect, Amaranthus retroflexus (activity level) (Amaranthus retroflexus; Dose 3000 g/ha) | weed control effect, Rorippa indica (activity level) (Rorippa indica; Dose 3000 g/ha)
